In article PMC7722752, “First-in-human Phase 1 open label study of the BET inhibitor ODM-207 in patients with selected solid tumours” (British Journal of Cancer, 2020):
Read-outs that look alike come from different tables or passages of the source.

Tests used:
[1] = system: non-BET family bromodomains; conditions: preclinical; cited from earlier work
platelet count = test: Phase 1 study: platelet count as pharmacodynamic biomarker; conditions: in vivo
From the text: Platelet count was chosen as a pharmacodynamic biomarker based on the observed robust correlation between BET inhibitor exposure and thrombocytopaenia in preclinical and clinical studies.[13],[14]

[2] = system: patients with selected solid tumours
From the text: The study design contained two parts: (1) dose escalation in patients with advanced solid tumours with an innovative single dose accelerated titration procedure in the first cohort (1A), (2) evaluation of food effect on bioavailability (1B). The single-dose accelerated titration procedure in the first cohort involved comparison of measured pharmacokinetic parameters in the first cohort of patients against preclinical models to evaluate whether exposure was within the target range. If the measured exposure was outside the target range (below or above), the protocol allowed for dose adjustment. Dose escalation was performed using a traditional 3 + 3 schedule. […] The relevant national authorities provided regulatory approval and local institutional review boards approved the protocol. All study procedures were conducted in accordance with the Declaration of Helsinki and good clinical practice. All patients provided written informed consent.
The starting dose was chosen as it was reasonably expected to be both pharmacologically active and safe and tolerable. The target exposure for the starting dose was estimated from exposures observed in pre-clinical anti-tumour activity and safety studies. The estimated human dose required was predicted by both human equivalent dose calculations and physiologically-based pharmacokinetic modelling. […] Treatment was taken in the ambulatory setting, except for hospital admissions required for pre-specified study-related procedures.
(§1) Response was assessed using RECIST 1.1 for patients with advanced solid tumours,[20] Prostate Cancer Working Group 3 criteria (PCWG3) for castrate-resistant prostate cancer[21] and Lugano criteria for non-Hodgkin lymphoma.[22]
Safety analyses included all patients who received any doses of treatment. Efficacy evaluation was performed on all patients who received two or more cycles of treatment (≥8 weeks). Data points were excluded from relevant pharmacokinetic and platelet count analyses if samples were taken when the patient was on treatment interruption or within 3 days after resumption of treatment. […] Pre-dose total exposure of <3500 ng/mL was not expected to have significant BET inhibition effect and a level of ≥5000 ng/mL was expected to confer BET inhibition.

[3] = system: breast cancer and leukaemia and prostate cancer xenograft models; set-up: method as in earlier work; conditions: preclinical; cited from earlier work
selected solid tumours = test: Phase 1 study: anti-tumour activity (RECIST 1.1, PCWG3, Lugano); type: in vivo, human
Experimental: as §1
Efficacy evaluation was performed on all patients who received two or more cycles of treatment (≥8 weeks).

BET = system: BET; set-up: method as in earlier work; conditions: preclinical; cited from earlier work
[4] = Phase 1 study: plasma pharmacokinetics and food effect; type: in vivo, human; conditions: for metabolite/parent ratio based in AUC(0-t): main metabolite = demethylation product
From the text: All patients provided written informed consent.

[5] = cohort 1A-1 0.6 mg/kg (50 mg) (n = 3)
[6] = cohort 1A-2 1.3 mg/kg (100 mg) (n = 7)

## COc1cc2c(cc1-c1c(C)noc1C)cc(C)c(=O)n2Cc1ccccn1 [ODM-207]
[1]
  cross-reactivity with non-BET family bromodomains: minimal cross-reactivity
Platelet count
  correlation between plasma exposure and changes in platelet count over time: strong correlation
  recovery of platelet count upon treatment interruption: Prompt recovery
[2]; GRADE 1, Total (n = 35)
  Related AE: Asthenia: 3 (8.6) n (%)
  Related AE: Decreased appetite: 12 (34) n (%)
  Related AE: Diarrhoea: 9 (26) n (%)
  Related AE: Dysgeusia: 4 (11) n (%)
  Related AE: Fatigue: 9 (26) n (%)
  Related AE: Headache: 7 (20) n (%)
  Related AE: Nausea: 13 (37) n (%)
  Related AE: Thrombocytopaenia: 15 (43) n (%)
  Related AE: Vomiting: 7 (20) n (%)
  Related AE: Weight loss: 4 (11) n (%)
[2]; GRADE 2, Total (n = 35)
  Related AE: Asthenia: 3 (8.6) n (%)
  Related AE: Decreased appetite: 8 (23) n (%)
  Related AE: Diarrhoea: 5 (14) n (%)
  Related AE: Dysgeusia: 3 (8.6) n (%)
  Related AE: Fatigue: 6 (17) n (%)
  Related AE: Headache: 3 (8.6) n (%)
  Related AE: Nausea: 4 (11) n (%)
  Related AE: Thrombocytopaenia: 8 (23) n (%)
  Related AE: Vomiting: 3 (8.6) n (%)
  Related AE: Weight loss: 1 (2.9) n (%)
[2]; GRADE 3, Total (n = 35)
  Related AE: Fatigue: 2 (5.7) n (%)
  Related AE: Nausea: 3 (8.6) n (%)
  Related AE: Thrombocytopaenia: 4 (11) n (%)
  Related AE: Weight loss: 1 (2.9) n (%)
[2]; GRADE 4, Total (n = 35)
  Related AE: Thrombocytopaenia: 1 (2.9) n (%)
[2]; Total (n = 35)
  AEs leading to dose reduction: 4 (11) n (%)
  AEs leading to dosing interruption: 19 (54) n (%)
  DLTs: 1 (2.9) n (%)
  Grade ≥ 3 AEs: 19 (54) n (%)
  Related SAEs: 3 (8.6) n (%)
  SAEs: 14 (40) n (%)
[2]; any grade, n = 35
  Common AE: nausea: 66%
[2]; [5]
  AEs leading to dosing interruption: 2 (67) n (%)
  AEs leading to study discontinuation: 1 (33) n (%)
[2]; [6]
  AEs leading to dosing interruption: 4 (57) n (%)
  DLTs: 1 (14) n (%)
  Grade ≥ 3 AEs: 3 (43) n (%)
[2]; cohort 1A-2 1.3 mg/kg (100 mg) (n = 7), oral once daily
  SAEs: 2 (29) n (%)
[2]; cohort 1A-3 1.5 mg/kg (n = 5)
  AEs leading to dosing interruption: 2 (40) n (%)
  AEs leading to study discontinuation: 2 (40) n (%)
  Grade ≥ 3 AEs: 2 (40) n (%)
  SAEs: 2 (40) n (%)
[2]; cohort 1A-4 2 mg/kg (n = 6)
  AEs leading to dose reduction: 2 (33) n (%)
  AEs leading to dosing interruption: 5 (83) n (%)
  AEs leading to study discontinuation: 1 (17) n (%)
  Grade ≥ 3 AEs: 4 (67) n (%)
  Related SAEs: 2 (33) n (%)
  SAEs: 3 (50) n (%)
[2]; cohort 1B-1 1.1 mg/kg (n = 10)
  AEs leading to dose reduction: 1 (10) n (%)
  AEs leading to dosing interruption: 4 (40) n (%)
  AEs leading to study discontinuation: 3 (30) n (%)
  Grade ≥ 3 AEs: 6 (60) n (%)
  SAEs: 3 (30) n (%)
[2]; cohort 1B-2 1.4 mg/kg (n = 4)
  AEs leading to dose reduction: 1 (25) n (%)
  AEs leading to dosing interruption: 2 (50) n (%)
  AEs leading to study discontinuation: 2 (50) n (%)
  Grade ≥ 3 AEs: 4 (100) n (%)
  Related SAEs: 1 (25) n (%)
  SAEs: 4 (100) n (%)
[2]; due to cumulative toxicity beyond the DLT treatment window
  highest studied dose achieved: 2 mg/kg
[2]; n = 35
  Common AE: anorexia: 49%
  Common AE: diarrhoea: 40%
  Common AE: fatigue: 43%
  Common AE: headache: 37%
  Common AE: vomiting: 40%
  Common AE: weight loss: 23%
  deaths on study: five deaths on study, all of which were considered not related to ODM-207
  treatment-related grade ≥3 adverse event: fatigue: 5.7%
  treatment-related grade ≥3 adverse event: nausea: 8.6%
  treatment-related grade ≥3 adverse event: thrombocytopaenia: 14.3%
[2]; of 35 treated patients
  Treatment discontinuation due to AEs: 5 (14%) patients
[2]; one patient, 100 mg (1.9 mg/kg), cohort 1A-2
  dose-limiting toxicity observed: intolerable grade 3 fatigue
[2]; oral once daily, 28-day cycle, based upon observed adverse events beyond the DLT period
  maximum tolerated dose (MTD): 2 mg/kg
[2]; overall, n = 35
  patients who experienced a treatment-related AE: 31 (89%) patients
[3]
  tumour growth inhibition: preclinical evidence of tumour growth inhibition
Selected solid tumours; 21 evaluable patients
  non-CR/non-PD (non-measurable disease) as best response: 6 (29%) patients
  progressive disease (PD) as best response: 9 (43%) patients
  stable disease (SD) as best response: 29%
Selected solid tumours; 21 evaluable patients (≥ 8 weeks of treatment), RECIST
  partial or complete response (PR, CR): None had a partial or complete response
Selected solid tumours; NUT midline carcinoma, four patients
  patients with NMC with SD as best response: One out of four
Selected solid tumours; in vivo
  correlation between progression-free survival and increased exposure: no correlation
  median (range) duration of SD: 16.3 (8.0–23.0) weeks
  median progression-free survival: 2.2 months
  progression-free survival, range: 0.5–9.7 months
Selected solid tumours; of 35 treated patients
  Treatment discontinuation due to disease progression: 28 (80%) patients
Selected solid tumours; prostate cancer patients
  decline in PSA below baseline level: None of the prostate cancer patients showed decline in PSA below baseline level
BET
  BET inhibition potency: highly potent
[4]; day 1
  metabolite/parent ratio based in AUC(0-t): 0.1–0.2
[4]; day 15
  metabolite/parent ratio based in AUC(0-t): 0.1–0.5
[4]; dose escalation 0.6–2.0 mg/kg
  exposure versus dose: dose proportional exposure
[4]; food effect cohort, single dose, light breakfast vs overnight fasting
  Plasma exposure (AUC0-24) under fed condition versus fasting condition: 1.5 fold
[4]; n = 28, 95% CI 2.9, 3.8
  increase of mean AUC(0-t) between day 1 and day 15 of dosing: 3.4 fold
[4]; oral
  absorption and elimination (plasma pharmacokinetics): slow absorption and elimination
